{
  "source": "patent US20230233545A1",
  "about": "“TREATMENT OF ATRIAL DYSFUNCTION” (MyoKardia, Inc., priority 2020, published 2023)",
  "key": {"[1]": {"tested_on": "beagle dogs under isoflurane anesthesia, right-atrial burst pacing", "assay": "AF inducibility and LA size/function with phenylephrine on board (Example 3)", "conditions": "P<0.05"}, "[2]": {"tested_on": "beagle dogs (without left ventricular dysfunction)", "assay": "AF inducibility and LA size/function with phenylephrine on board, dobutamine (Example 4)", "format": "in vivo", "conditions": "FIG. 6", "method": "Once sinus rhythm was re-established (cardioversion was used if AF persisted for more than 30 minutes), a third anesthetized ECHO was performed.\nThe effects of dobutamine on AF inducibility and LA size and function were examined by echocardiography (ECHO) and electrocardiogram (ECG) in beagle dogs with phenylephrine (PE) on board, and compared to the effects of PE alone. The beagle dogs (without left ventricular dysfunction) were assessed for left atrial function and size and for atrial fibrillation inducibility according to the protocols described in Example 3 (experimental design shown in FIG. 5), allowing for the effects of dobutamine to be compared to those of Compound I as shown in Example 3."}},
  "data": [
    {"smiles": "CNC[C@H](O)c1cccc(O)c1", "note": "[phenylephrine, reference compound]", "values": [
      {"measurement": "SBP, change induced by phenylephrine", "setting": "[1]; PE 0.5-20 μg/kg/min fixed rate", "value": "38±7", "unit": "%"},
      {"measurement": "LAmin under phenylephrine", "setting": "[1]; PE 0.5-20 μg/kg/min, from 22.9±2.0", "value": "29.3±2.5", "unit": "mL/m^2"},
      {"measurement": "SBP under phenylephrine", "setting": "[1]; PE 0.5-20 μg/kg/min, from 88.6±2.7", "value": "122.4±6.9", "unit": "mmHg"},
      {"measurement": "LAmin, change induced by phenylephrine", "setting": "[1]; PE 0.5-20 μg/kg/min, increase", "value": "28±3", "unit": "%"}
    ]},
    {"smiles": "CC(CCc1ccc(O)cc1)NCCc1ccc(O)c(O)c1", "note": "(stereo not drawn) [dobutamine]", "values": [
      {"measurement": "AF duration", "setting": "[2]; dobutamine 1-10 μg/kg/hr infusion with PE", "value": "did not reduce AF duration, and in fact increased it"},
      {"measurement": "LV contractility (ΔEF)", "setting": "[2]; dobutamine 1-10 μg/kg/hr infusion", "value": "increase LV contractility"}
    ]}
  ]
}
